{"source": "patent US11820994B2", "about": "“Methods of inducing apomictic or sexual reproduction” (priority 2018, dated 2023)", "key": {"[1]": {"test_system": "B. stricta ovules", "assay": "In vitro culture of pistils on epiBL-containing medium, dyad formation", "assay_type": "cell-based", "protocol": "(§1) FIG. 40 Frequencies of B. stricta ovules (dyads and tetrads) that were undergoing dyad formation (sexual or diplosporous) at the end of pistil treatment as affected by i) a 3 h in vivo floral dip in solutions containing epibrassinolide (epiBL) or ii) culturing of pistils in epiBL-containing media with in vitro culture of pistils initiated when pistils were in the 1-I or the 2-III to 2-IV stages. Numbers of correctly-staged ovules (dyads plus tetrads) per data point averaged 53 and ranged from 27-82.\n(§2) epiBL is the naturally occurring and most biologically active form of BR. Applications of epiBL to pistils of sexual B. stricta, in vivo or in vitro, caused MMC to abort meiosis and instead produce dyads (FIG. 40). […] This induced 31% dyad formation, compared to 7% for the controls (a frequency often observed in sexual plants where they represent an intermediate stage of sexual meiosis). A similar dyad induction frequency (29%) was obtained by culturing 1-I to 2-II staged B. stricta pistils on a 0.1 μmol L−1 epiBL medium for 2 d (FIG. 40)."}, "[2]": {"test_system": "Arabidopsis ovules", "assay": "Pistil culture experiments with 5-azaC, BR (epiBL), DTBA, H2O2 and sugars, meiosis to apomeiosis", "assay_type": "cell-based, Arabidopsis thaliana", "conditions": "BR alone", "source_text": "(§3) To address redox instability, pistils were exposed to the antioxidant DTBA, an antioxidant that protects thiol groups in proteins from oxidization. To address bioenergetic stress, pistils were exposed to sugars. Glucose signaling is one of the most ancient and central signaling pathways in animals and plants and is involved in gene expression, primary and secondary metabolism, and regulation of growth and development (98). In Arabidopsis, rates of glycolysis and mitochondrial bioenergetics are sensed by TOR, which then control root meristem activation (18). If sufficient sugar is supplied, TOR should be activated. Active TOR protects BZR1 and other important BR-regulated enzymes from degradation, and this leads to plant growth (25). Factorial experiments were designed to test the effects of sucrose, glucose, epiBL, DTBA and 5-azaC on apomixis induction. These were designed for each of three sexual species, B. stricta, arabidopsis and cowpea. The experiments were performed and ratios of apomeiosis to meiosis were documented.\nTwo factorial experiments were conducted using immature arabidopsis pistils. In the first experiment, no 5-azaC, 5-azaC in the pretreatment only, or 5-azaC in both the pretreatment and the tissue culture medium were tested.\nCytological Analyses. Arabidopsis, Drummond's rockcress and cowpea floral buds were fixed in FAA (v/v: 3.7% formaldehyde, 5% acetic acid, 50% ethanol) for 48 h and cleared in 2:1 benzyl benzoate dibutyl phthalate (BBDP) (80): 1) 70% EtOH, 30 min; 95% EtOH, ≥4 h (2×); 95% EtOH:BBDP (2:1), 2 h; 95% EtOH:BBDP (1:2), 4 h; BBDP, 4 h; BBDP, overnight. Cleared pistils were mounted (up to 16 per slide) and measured from the pedicel base to the top of the stigma. Ovule development stages were studied using a BX53 microscope equipped with differential interference contrast optics and a MicroFire 599809 camera (Olympus, Center Valley, Pa., USA). For chromosome staining, pistils were soaked in 95% ethanol that contained 0.1 mg L^−1 4′,6-diamidino-2-phenylindole (DAPI). Callose was stained by soaking DAPI stained pistils in aqueous aniline blue (Millipore Sigma, Darmstadt, Germany) (124). DAPI fluorescence was detected with a Zeiss LSM 510 confocal microscope with excitation at 408 nm, dichroic reflector at HFT488 nm and detection at 450-650 nm. Callose was distinguished from DAPI by detection at 550-650 nm.\nPresence of the following ovule characteristics were recorded: MMCs, Antennaria type diplosporous 1-2 nucleate ES, sexual or Taraxacum type diplosporous dyads, sexual tetrads, sexual or Taraxacum type diplosporous 1-2 nucleate ES, AI and AES. Developmental stages for the majority of ovules per pistil were recorded, and pistil lengths for the following stages (125) were recorded: 1-II, ovule meristems protruding from placentae (precedes MMC formation); 2-IV, meiosis; 3-III, vacuole in immature ES beginning to appear; 4-VI, nuclear divisions in endosperm underway. To determine average timing of meiosis onset, pistils primarily containing premeiotic (2-III) ovules were located under low light conditions 1 h before the lights came on in the morning. Corresponding sepals were marked with a small point permanent marker. Pistils were then randomly harvested for analysis when the lights came on and 3 h thereafter.\nPistils were aseptically excised, but not disinfested, at the early pre-MMC to MMC stages and incubated in vitro. The basal culture medium for arabidopsis and Drummond's rockcress was MS (126) (Caisson Laboratories, Inc., Smithfield, UT USA) with 20 g L^−1 sucrose or glucose and solidified with 1.45 g L^−1 Phytogel (MilliporeSigma)."}, "[3]": {"test_system": "B. stricta ovules", "assay": "In vivo floral dip in epiBL solution, dyad formation", "conditions": "flower buds dipped 3 h in 10 μmol L−1 epiBL; controls 7%", "protocol": "as §1, §2"}, "[4]": {"test_system": "Arabidopsis anthers", "assay": "Anthers cultured in vitro with epiBL, unreduced pollen microspores", "assay_type": "cell-based", "conditions": "0.1 μM epiBL on 2% sucrose medium for 24 h", "source_text": "(§4) Scale bars: 50 μm (FIG. 51A), 20 μm (FIGS. 51B-51E)."}, "[5]": {"test_system": "B. stricta (Drummond's rockcress) ovules", "assay": "Pistil culture factorial experiment with sucrose, glucose, epiBL, DTBA and 5-azaC", "assay_type": "cell-based, Boechera stricta", "source_text": "as §3\nBoth the carbohydrate variable and the other components variable were highly significant (P<0.001). Additionally, three ovules from the sucrose plus epiBL treatment (epiBL in the pretreatment and in the medium) had formed aposporous embryo sacs (AES). Also, two ovules, one from the sucrose-epiBL-epiBL treatment and one from the glucose-DTBA-DTBA treatment, had formed Antennaria-type diplosporous embryo sacs (FIGS. 48A-48H).\n(§5) Cytological Analyses. Arabidopsis, Drummond's rockcress and cowpea floral buds were fixed in FAA (v/v: 3.7% formaldehyde, 5% acetic acid, 50% ethanol) for 48 h and cleared in 2:1 benzyl benzoate dibutyl phthalate (BBDP) (80): 1) 70% EtOH, 30 min; 95% EtOH, ≥4 h (2×); 95% EtOH:BBDP (2:1), 2 h; 95% EtOH:BBDP (1:2), 4 h; BBDP, 4 h; BBDP, overnight. Cleared pistils were mounted (up to 16 per slide) and measured from the pedicel base to the top of the stigma. […] DAPI fluorescence was detected with a Zeiss LSM 510 confocal microscope with excitation at 408 nm, dichroic reflector at HFT488 nm and detection at 450-650 nm. […]\nPresence of the following ovule characteristics were recorded: MMCs, Antennaria type diplosporous 1-2 nucleate ES, sexual or Taraxacum type diplosporous dyads, sexual tetrads, sexual or Taraxacum type diplosporous 1-2 nucleate ES, AI and AES. Developmental stages for the majority of ovules per pistil were recorded, and pistil lengths for the following stages (125) were recorded: 1-II, ovule meristems protruding from placentae (precedes MMC formation); 2-IV, meiosis; 3-III, vacuole in immature ES beginning to appear; 4-VI, nuclear divisions in endosperm underway. […]"}, "[6]": {"test_system": "Arabidopsis embryo sacs", "assay": "Induction of parthenogenesis and autonomous endosperm formation in pistils", "assay_type": "cell-based", "conditions": "2 μM BR or 50 mM glucose prior to central cell callose deposition", "protocol": "as §4\nFIG. 52 Parthenogenesis in putatively diploid Arabidopsis embryo sacs induced by treatment of pistils in emasculated flowers with 2 μM BR or 50 mM glucose. To prevent fertilization, stigmas of pistils were clipped while anthers were immature. These pistils were also treated premeiotically with BR and glucose.\nFunctional apomixis requires not only apomeiosis but also parthenogenesis and, in plants, endosperm formation."}, "[7]": {"test_system": "Arabidopsis ovules", "assay": "Topical application of BR or glucose to intact pistils, apomeiosis induction", "assay_type": "in vivo, Arabidopsis thaliana", "protocol": "Most of the functional megaspores from these treatments originated by Taraxacum-type diplospory (FIG. 42) with frequent subepidermal layer of cells with or without a parietal cell. A few cases of Antennaria-type diplospory were also observed (FIG. 43).\nas §5\nPresence of the following ovule characteristics were recorded: MMCs, Antennaria type diplosporous 1-2 nucleate ES, sexual or Taraxacum type diplosporous dyads, sexual tetrads, sexual or Taraxacum type diplosporous 1-2 nucleate ES, AI and AES. […]\nFor topical applications, sepals of floral buds were separated, and pistil lengths were measured using a dissecting microscope. […]"}}, "data": [{"smiles": "CC(C)[C@@H](C)[C@@H](O)[C@H](O)[C@@H](C)[C@H]1CC[C@H]2[C@@H]3COC(=O)[C@H]4C[C@H](O)[C@H](O)C[C@]4(C)[C@H]3CC[C@]12C", "note": "[epiBL, epibrassinolide]", "values": [{"measurement": "dyad induction frequency", "setting": "[1]; 1-I to 2-II staged pistils on 0.1 μmol L−1 epiBL medium for 2 d", "result": 29, "unit": "%"}, {"measurement": "unreduced embryo sacs forming from epiBL-induced dyads", "setting": "[1]; epiBL treatments", "result": "only rarely observed"}, {"measurement": "ratios of observed dyads", "setting": "[1]; epiBL treatments (in vivo or in vitro)", "result": 30, "unit": "%"}, {"measurement": "AES formation", "setting": "[2]", "result": "Low levels"}, {"measurement": "ovules with meiosis stopped, MMC undergoing Taraxacum type dyad or ES formation", "setting": "[2]", "result": 45, "unit": "%"}, {"measurement": "dyad formation", "setting": "[3]", "result": 31, "unit": "%"}, {"measurement": "unreduced pollen microspores", "setting": "[4]", "result": "Unreduced pollen dyads of microspores"}, {"measurement": "number of ovules that formed aposporous embryo sacs (AES)", "setting": "[5]; sucrose plus epiBL, epiBL in the pretreatment and in the medium", "result": "three"}, {"measurement": "number of ovules that formed Antennaria-type diplosporous embryo sacs", "setting": "[5]; sucrose-epiBL-epiBL treatment", "result": "one"}, {"measurement": "callose deposition, parthenogenesis and autonomous endosperm formation", "setting": "[6]", "result": "prevented stress-associated callose deposition and activated parthenogenesis and autonomous endosperm formation"}, {"measurement": "apomeiotic dyad formation", "setting": "[7]; intact pistils treated with BR or glucose solutions (2 μM BR or 50 mM glucose)", "result": "induced high frequency apomeiotic dyad formation"}, {"measurement": "Taraxacum-type diplospory induction", "setting": "[7]; topical applications 24 h before or immediately before meiosis", "result": "induced Taraxacum-type diplospory"}]}]}
